Assay results reported in US20020049205A1, “Pyrazole antimicrobial agents” (priority 2000, published 2002).

Columns and labels:
[1] = biological target: T1, Sigma^70 saturated E. coli RNA Polymerase (Escherichia coli, UniProt P0A7Z4+P0A800+P0A8T7+P0A8V2); assay: IC50 assay, inhibition of RNA polymerase; format: biochemical
T1 construct: purchased Epicenter
Description: One common assay involves evaluation of the compounds as RNA polymerase inhibitors. In this assay, buffer (250 mM KCl, 5% glycerol, 10 mM MgCl2, 0.1 mg/ml BSA) is combined with 6 mM β-M.E., PT5 DNA template, and 1.3 μg/rxn Sigma^70 saturated E. coli RNA Polymerase (Epicenter). The compound is then added in a manner not to exceed 5% DMSO. Nucleotide triphosphates are then added at the following concentration: 250 μM ATP, CTP and UTP with 100 μM cold CTP and 50 μM α-^32P CTP. The mixture is incubated for 10 min at about 37° C. A [2×] loading buffer is added and the mixture is then run on a 6% urea denaturing PAGE until bromophenol blue reaches the edge of plate. The gel is soaked (about 20 minutes in 10% MeOH and 10% acetic acid, to remove urea), then dried (about 55 minutes at about 85° C. (BioRad Gel Drier)) and exposed to a Phospho Imaging Plate for 1 hour. The plate is then read on a Fujix Bas1000 Imaging System and quantified using MacBas v2.0 software. An IC50 (in μM) can be calculated as the concentration of a drug which reduces the enzyme activity to 50% of the control.
In this assay, buffer (250 mM KCl, 5% Glycerol, 10 mM MgCl2, 0.1 mg/ml bovine serum albumin (BSA)) is combined with 6 mM β-mercaptoethanol, PT5 DNA template, and 1.3 μg/rxn Sigma^70 saturated E. coli RNA Polymerase (obtained from Epicenter). The compound is then added in a manner not to exceed 5% DMSO. Nucleotide triphosphates are then added at the following concentration: 250 μM ATP, CTP and UTP with 100 μM cold CTP and 50 μM α-32P CTP. The mixture is incubated for 10 min at about 37° C. A [2×] loading buffer is added and the mixture is then run on a 6% urea denaturing PAGE until bromophenol blue reaches the edge of plate. The gel is soaked (about 20 minutes in 10% MeOH and 10% acetic acid, to remove urea), then dried (about 55 minutes at about 85° C. (BioRad Gel Drier)) and exposed to a Phospho Imaging Plate for 1 hour. The plate is then read on a Fujix Bas1000 Imaging System and quantified using MacBas v2.0 software. An IC50 (in μM) can be calculated as the concentration of a compound of the invention that reduces the enzyme activity to 50% of the control. For the sake of clarity, the above-described assay is used to determine the IC50 values referenced in the claims. However, the skilled artisan will recognize that other methods can be used to determine an IC50 value.

B. su = assay: Minimum Inhibitory Concentration assay, B. su; format: cell-based; settings: LB medium, 16 hours, 37° C.
Description: (§1) For Minimum Inhibitory Concentration (MIC) determinations for selected bacteria, log phase growing bacteria are re-suspended at 1×10^5 bacteria per mL in LB medium. The compound is added and two-fold dilutions are made. The final volume in the 96-well plate is about 100 μL. The plate is incubated at 37° C. in the dark with shaking. After 16 hours of incubation, growth is monitored by reading A600 or by visual inspection. MIC is defined as the minimum concentration of drug resulting in inhibition of visible growth of bacterial under the conditions described (above) in National Committee for Clinical Laboratory Standards 1993. Methods for dilution antimicrobial susceptibility tests for bacteria that grow aerobically. Approved standard M7-A3; National Committee for Clinical Laboratory Standards: Villanova, Pa.
as §1, with “MIC” for “Minimum Inhibitory Concentration (MIC)”

S. au = assay: Minimum Inhibitory Concentration assay, S. au; format: cell-based; settings: LB medium, 16 hours, 37° C.
Description: as §1
as §1, with “MIC” for “Minimum Inhibitory Concentration (MIC)”

E.c(tolC) = assay: Minimum Inhibitory Concentration assay, E.c(tolC); format: cell-based; settings: 16 h, read-out: MIC (μM) E.c(tolC)
Description: as §1
as §1, with “MIC” for “Minimum Inhibitory Concentration (MIC)”

[2] = Table 1, compounds of Formula 1

T1 sequence (P0A8V2 whole entry): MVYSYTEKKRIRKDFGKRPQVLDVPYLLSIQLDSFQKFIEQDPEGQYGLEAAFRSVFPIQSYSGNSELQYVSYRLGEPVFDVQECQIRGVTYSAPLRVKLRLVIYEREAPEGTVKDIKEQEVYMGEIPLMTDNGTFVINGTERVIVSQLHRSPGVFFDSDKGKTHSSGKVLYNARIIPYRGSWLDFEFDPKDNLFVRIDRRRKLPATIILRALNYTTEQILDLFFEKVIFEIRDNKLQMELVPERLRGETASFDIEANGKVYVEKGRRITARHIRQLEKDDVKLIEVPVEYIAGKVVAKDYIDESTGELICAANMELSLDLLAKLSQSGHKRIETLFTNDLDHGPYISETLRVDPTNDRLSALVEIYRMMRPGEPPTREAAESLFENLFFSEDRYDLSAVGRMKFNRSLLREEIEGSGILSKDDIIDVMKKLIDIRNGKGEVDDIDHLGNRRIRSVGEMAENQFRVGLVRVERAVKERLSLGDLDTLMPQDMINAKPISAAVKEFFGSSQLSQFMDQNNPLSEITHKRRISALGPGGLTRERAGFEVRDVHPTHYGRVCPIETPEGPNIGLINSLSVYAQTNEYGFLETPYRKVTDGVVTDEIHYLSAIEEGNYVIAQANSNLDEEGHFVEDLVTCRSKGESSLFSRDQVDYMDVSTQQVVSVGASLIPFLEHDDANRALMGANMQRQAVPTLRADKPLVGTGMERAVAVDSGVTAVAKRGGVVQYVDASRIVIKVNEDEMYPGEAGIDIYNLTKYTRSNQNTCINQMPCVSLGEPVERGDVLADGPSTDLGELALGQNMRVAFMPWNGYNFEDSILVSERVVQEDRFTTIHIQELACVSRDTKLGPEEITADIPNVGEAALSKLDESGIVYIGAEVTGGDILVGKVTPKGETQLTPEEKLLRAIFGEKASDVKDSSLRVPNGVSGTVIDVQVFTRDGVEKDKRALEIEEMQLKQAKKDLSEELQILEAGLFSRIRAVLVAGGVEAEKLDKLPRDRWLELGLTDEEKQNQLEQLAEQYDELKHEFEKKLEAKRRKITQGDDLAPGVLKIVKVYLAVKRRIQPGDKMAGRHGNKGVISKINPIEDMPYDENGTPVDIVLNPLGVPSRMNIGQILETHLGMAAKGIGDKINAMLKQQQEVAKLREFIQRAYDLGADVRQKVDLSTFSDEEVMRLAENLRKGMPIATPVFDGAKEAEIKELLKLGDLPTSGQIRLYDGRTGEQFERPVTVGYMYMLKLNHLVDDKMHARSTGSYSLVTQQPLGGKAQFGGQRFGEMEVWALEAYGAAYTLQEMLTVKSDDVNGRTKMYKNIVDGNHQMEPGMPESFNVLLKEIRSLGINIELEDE
T1 sequence (P0A8T7 whole entry): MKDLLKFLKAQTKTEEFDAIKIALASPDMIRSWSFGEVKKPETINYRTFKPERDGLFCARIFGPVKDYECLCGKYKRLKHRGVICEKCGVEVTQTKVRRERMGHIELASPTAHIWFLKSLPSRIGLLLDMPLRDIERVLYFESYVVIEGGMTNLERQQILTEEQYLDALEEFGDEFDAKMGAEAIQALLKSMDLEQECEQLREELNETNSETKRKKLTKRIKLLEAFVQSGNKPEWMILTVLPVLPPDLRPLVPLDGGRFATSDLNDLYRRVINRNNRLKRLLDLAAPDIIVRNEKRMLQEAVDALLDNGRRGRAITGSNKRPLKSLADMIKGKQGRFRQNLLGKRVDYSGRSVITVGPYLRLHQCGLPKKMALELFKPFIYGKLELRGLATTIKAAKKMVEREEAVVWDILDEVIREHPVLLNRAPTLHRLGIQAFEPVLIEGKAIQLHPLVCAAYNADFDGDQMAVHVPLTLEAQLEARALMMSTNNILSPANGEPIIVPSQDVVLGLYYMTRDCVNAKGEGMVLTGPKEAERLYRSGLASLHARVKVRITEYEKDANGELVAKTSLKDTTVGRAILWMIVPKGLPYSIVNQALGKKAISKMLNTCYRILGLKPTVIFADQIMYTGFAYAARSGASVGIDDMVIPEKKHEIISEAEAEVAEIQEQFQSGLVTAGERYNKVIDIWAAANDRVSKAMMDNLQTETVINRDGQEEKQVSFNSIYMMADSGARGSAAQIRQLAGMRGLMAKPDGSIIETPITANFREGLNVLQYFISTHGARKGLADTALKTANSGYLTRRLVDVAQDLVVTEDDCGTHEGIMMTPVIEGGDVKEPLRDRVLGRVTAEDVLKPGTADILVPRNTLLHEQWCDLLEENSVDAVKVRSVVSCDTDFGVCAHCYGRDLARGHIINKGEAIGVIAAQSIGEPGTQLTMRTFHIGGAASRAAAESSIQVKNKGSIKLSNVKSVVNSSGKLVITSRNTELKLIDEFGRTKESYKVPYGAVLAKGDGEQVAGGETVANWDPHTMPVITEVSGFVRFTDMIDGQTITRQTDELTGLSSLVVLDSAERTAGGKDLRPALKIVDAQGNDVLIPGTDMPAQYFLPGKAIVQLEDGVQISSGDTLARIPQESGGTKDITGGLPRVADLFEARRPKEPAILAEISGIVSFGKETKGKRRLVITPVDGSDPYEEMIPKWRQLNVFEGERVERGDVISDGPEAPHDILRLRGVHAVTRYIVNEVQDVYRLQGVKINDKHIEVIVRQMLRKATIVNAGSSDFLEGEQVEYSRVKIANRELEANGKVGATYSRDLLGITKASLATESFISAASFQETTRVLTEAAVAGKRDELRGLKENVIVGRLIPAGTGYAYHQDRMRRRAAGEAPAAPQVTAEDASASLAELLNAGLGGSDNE
T1 sequence (P0A7Z4 whole entry): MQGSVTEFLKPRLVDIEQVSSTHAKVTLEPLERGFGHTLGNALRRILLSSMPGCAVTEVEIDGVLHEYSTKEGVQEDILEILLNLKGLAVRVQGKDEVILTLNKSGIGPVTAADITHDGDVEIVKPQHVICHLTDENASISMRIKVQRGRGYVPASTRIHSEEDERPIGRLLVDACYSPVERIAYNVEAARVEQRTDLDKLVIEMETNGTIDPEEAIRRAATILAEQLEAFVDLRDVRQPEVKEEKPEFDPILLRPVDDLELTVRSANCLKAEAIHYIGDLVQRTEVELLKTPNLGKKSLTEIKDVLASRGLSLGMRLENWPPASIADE
T1 sequence (P0A800 whole entry): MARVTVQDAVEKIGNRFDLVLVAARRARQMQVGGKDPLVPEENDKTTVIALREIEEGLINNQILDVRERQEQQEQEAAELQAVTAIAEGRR

Row | SMILES | IC50 [1, 2] [µM] | MIC (B. su; Table 1) [µM] | MIC (S. au; Table 1) [µM] | MIC (E.c(tolC)) [µM] | IC50 ([1]; Table 2, compounds of Formula 13) [µM] | MIC (B. su; Table 2) [µM] | MIC (S. au; Table 2) [µM] | IC50 ([1]; Table 3, heteroaryl compounds) [µM] | MIC (B. su; Table 3) [µM] | MIC (S. au; Table 3) [µM]
1 | O=C(NCCNc1cc(-c2c[nH]nc2-c2ccc(F)cc2)cc(C(F)(F)F)c1)Nc1ccc(Cl)c(C(F)(F)F)c1 [Example 29] | < 500 | < 500 | < 500 | > 500 |  |  |  |  |  | 
2 | O=c1[nH][nH]c(-c2ccc(Cl)cc2)c1-c1ccccc1 [Example 15, 5-(4-chlorophenyl)-4-phenyl-1,2-dihydropyrazol-3-one] |  |  |  | < 500 | > 500 | < 500 | < 500 |  |  | 
3 | Fc1ccc(-c2n[nH]cc2-c2ccc(NCCN3CCNCC3)c(C(F)(F)F)c2)cc1 [Example 20] | < 500 | < 500 | < 500 | < 500 |  |  |  |  |  | 
4 | O=C(NCCNc1cc(-c2c[nH]nc2-c2ccc(F)cc2)cc(C(F)(F)F)c1)c1ccccc1 [Example 28] | > 500 | < 500 | < 500 | < 500 |  |  |  |  |  | 
5 | Fc1ccc(-c2n[nH]cc2-c2ccc(NCCNCc3ccccc3)c(C(F)(F)F)c2)cc1 [Example 21] | < 500 | < 500 | < 500 | < 500 |  |  |  |  |  | 
6 | COc1cccc(-c2[nH]ncc2-c2ccccc2)c1 [Example 2] | > 500 | < 500 | < 500 | < 500 |  |  |  |  |  | 
7 | FC(F)(F)c1cc(-c2cn[nH]c2-c2cccc(Cl)c2)ccc1Cl [Example 9] | < 500 | < 500 | < 500 | < 500 |  |  |  |  |  | 
8 | Fc1ccc(-c2n[nH]cc2-c2ccc(F)c(C(F)(F)F)c2)cc1 [Example 18] | < 500 | < 500 | < 500 | < 500 |  |  |  |  |  | 
9 | NCCNc1cc(-c2c[nH]nc2-c2ccc(F)cc2)cc(C(F)(F)F)c1 [Example 27] | < 500 | < 500 | < 500 | < 500 |  |  |  |  |  | 
10 | Fc1cccc(-c2c[nH]nc2-c2ccsc2)c1 [Example 38] |  |  |  | < 500 |  |  |  | < 500 | < 500 | < 500
11 | NCCCNc1cc(-c2c[nH]nc2-c2ccc(F)cc2)cc(C(F)(F)F)c1 [Example 30] | > 500 | < 500 | < 500 | < 500 |  |  |  |  |  | 
12 | COc1ccc(-c2[nH]ncc2-c2ccccc2)cc1 [Example 6] | > 500 | < 500 | < 500 | < 500 |  |  |  |  |  | 
13 | Clc1ccc(-c2[nH]ncc2-c2ccccc2)cc1Cl [Example 4] | > 500 | < 500 | < 500 | < 500 |  |  |  |  |  | 
14 | FC(F)(F)c1cc(-c2cn[nH]c2-c2cccc(Cl)c2)ccc1N1CCCC1 [Example 12] | > 500 | < 500 | < 500 | < 500 |  |  |  |  |  | 
15 | Fc1ccc(-c2n[nH]cc2-c2cc(F)cc(C(F)(F)F)c2)cc1 [Example 26] | < 500 | < 500 | < 500 | < 500 |  |  |  |  |  | 
16 | Cc1ccc(-c2[nH]ncc2-c2ccccc2)cc1 [Example 5] | > 500 | < 500 | < 500 | < 500 |  |  |  |  |  | 
17 | NC1CCN(c2ccc(-c3c[nH]nc3-c3ccc(F)cc3)cc2C(F)(F)F)C1 (centres unmarked) [Example 24] | < 500 | < 500 | < 500 | < 500 |  |  |  |  |  | 
